This is an account of results in ChEMBL document CHEMBL1125092, “Nonneurotoxic tetralin and indan analogues of 3,4-(methylenedioxy)amphetamine (MDA)” (J Med Chem, 1990).

The subject of experiment [1] is Rattus norvegicus. The experiment in a line: Hallucinogenic property was determined in groups of LSD trained rats and percentage of animals disrupted was reported at a dose 0.186 (umol/kg),(number of animals = 8). Format: functional.
For experiment [2], the system named is Rattus norvegicus. Description: Hallucinogenic property was determined in groups of LSD trained rats and percentage of animals disrupted was reported at 0.023 (umol/kg) (number of animals = 8). The class given is functional.
Experiment [3] has as its system Rattus norvegicus. Description: Hallucinogenic property was determined in groups of LSD trained rats and percentage of animals disrupted was reported at a dose 0.012 (umol/kg),(number of animals = 8). Format: functional.
For experiment [4], the system named is Rattus norvegicus. Description: Hallucinogenic property was determined in groups of LSD trained rats and percentage of animals disrupted was reported at a dose 0.046(umol/kg) (number of animals = 9). Format: functional.
In experiment [5] the test system is Rattus norvegicus. Description: Hallucinogenic property was determined in groups of LSD trained rats and percentage of animals disrupted was reported at a dose 0.093(umol/kg) (number of animals = 8). The class given is functional.
The species entered for experiment [6] is Rattus norvegicus. The experiment in a line: Inhibitory activity was determined LSD trained rats. Format: functional.
Experiment [7] has as its system Rattus norvegicus. The experiment in a line: Tested for stimulus generation in rats trained to discriminate LSD from saline at a dose 0.046(umol/kg) (number of animals = 9). Format: functional.
The test system of experiment [8] is Rattus norvegicus. Description: Tested for stimulus generation in rats trained to discriminate LSD from saline at a dose 0.093(umol/kg) (number of animals = 8). Format: functional.
Experiment [9] deals with Rattus norvegicus. The experiment in a line: Tested for stimulus generation in rats trained to discriminate LSD from saline at a dose 0.186 (umol/kg),(number of animals = 8). The class given is functional.
For experiment [10], the system named is Rattus norvegicus. The experiment in a line: Tested for stimulus generation in rats trained to discriminate LSD from saline at a dose 0.012 (umol/kg),(number of animals = 8). The class given is functional.
The test system of experiment [11] is Rattus norvegicus. Description: Tested for stimulus generation in rats trained to discriminate LSD from saline at a dose 0.023 (umol/kg) (number of animals = 8). Format: functional.
For experiment [12], the species on record is Rattus norvegicus. Description: Compounds were evaluated for binding of [3H]paroxetine to rat brain cortical homogenate and number of binding sites (Bmax) for serotonin. The class given is tissue-based.
Experiment [13] is described as follows: Binding affinity was determined towards serotonin uptake site in presence of [3H]paroxetine radioligand in rat brain cortical homogenate. The class given is tissue-based.
Experiment [14] in a line: Binding affinity was determined towards serotonin uptake site in presence of [3H]paroxetine radioligand in rat hippocampal homogenate. The class given is tissue-based, Hippocampus.
The species entered for experiment [15] is Rattus norvegicus. The experiment in a line: Compounds were evaluated for binding of [3H]paroxetine to rat hippocampal homogenate and number of binding sites (Bmax) for serotonin. Format: tissue-based. The following applies: Hippocampus.
The subject of experiment [16] is Rattus norvegicus. The experiment in a line: Percentage of animals disrupted was determined in groups of MDMA trained rats at a dose of 3.81 (umol/kg),(no of animals = 8). Format: functional.
For experiment [17], the system named is Rattus norvegicus. Description: Percentage of animals disrupted was determined in groups of MDMA trained rats at a dose of 7.62 (umol/kg),(no of animals = 8). Format: functional.
The test system of experiment [18] is Rattus norvegicus. The experiment in a line: Percentage of animals disrupted was determined in groups of MDMA trained rats at a dose of 0.95 (umol/kg),(no of animals = 8). The class given is functional.
Experiment [19] relates to Rattus norvegicus. Description: Percentage of animals disrupted was determined in groups of MDMA trained rats at a dose of 1.90 (umol/kg),(no of animals = 8). Format: functional.
Experiment [20] deals with Rattus norvegicus. Description: Monoamine levels in at hippocampus were evaluated after subcutaneous administration of 40 mg/kg for NE. The class given is functional.
Experiment [21] concerns Rattus norvegicus. Description: Monoamine levels in rat brain were evaluated after subcutaneous administration of 40 mg/kg for 5-HIAA. Format: functional.
In experiment [22] the test system is Rattus norvegicus. The experiment in a line: Monoamine levels in rat brain were evaluated after subcutaneous administration of 40 mg/kg for 5-HT. Format: functional.
Experiment [23] relates to Rattus norvegicus. The experiment in a line: Monoamine levels in rat brain were evaluated after subcutaneous administration of 40 mg/kg for DA. The class given is functional.
The test system of experiment [24] is Rattus norvegicus. The experiment in a line: Monoamine levels in rat brain were evaluated after subcutaneous administration of 40 mg/kg for DOPAC. The class given is functional.
For experiment [25], the system named is Rattus norvegicus. The experiment in a line: Monoamine levels in rat brain were evaluated after subcutaneous administration of 40 mg/kg for HVA. The class given is functional.
Experiment [26] relates to Rattus norvegicus. Description: Monoamine levels in rat hippocampus were evaluated after subcutaneous administration of 40 mg/kg for 5-HIAA. The class given is functional.
The subject of experiment [27] is Rattus norvegicus. Description: Monoamine levels in rat hippocampus were evaluated after subcutaneous administration of 40 mg/kg for 5-HT. The class given is functional.
The subject of experiment [28] is Rattus norvegicus. The experiment in a line: Tested for stimulus generation in rats trained to discriminate MDMA from saline at a dose 1.90 (umol/kg) (number of animals = 8). Format: functional.
Experiment [29] relates to Rattus norvegicus. Description: Tested for stimulus generation in rats trained to discriminate MDMA from saline at a dose 3.81 (umol/kg),(number of animals = 8). The class given is functional.
In experiment [30] the test system is Rattus norvegicus. The experiment in a line: Tested for stimulus generation in rats trained to discriminate MDMA from saline at a dose 7.62 (umol/kg),(number of animals = 8). Format: functional.
The subject of experiment [31] is Rattus norvegicus. Description: Monoamine levels in rat brain were evaluated after subcutaneous administration of 40 mg/kg for NE. The class given is functional.

Several values for one entry are separate records, joined by “and”; a condition that tells them apart may be missing. Equal entries are not always repeated.

In the case of `CCN(CC)C(=O)[C@@H]1C=C2c3cccc4[nH]cc(c34)C[C@H]2N(C)C1` [LYSERGIDE], the D in the experiment with Rattus norvegicus [1], with Rattus norvegicus [2], in the experiment with Rattus norvegicus [3], in the experiment with Rattus norvegicus [4] and in the experiment on Rattus norvegicus [5] was 0% each time. In the experiment filed under Rattus norvegicus [6], the ED50 was 0.048 µM/kg and 0.021 µM/kg. The SDL was determined as 44% with Rattus norvegicus [7]; 88% in the experiment with Rattus norvegicus [8]; 100% with Rattus norvegicus [9]; 13% in the experiment with Rattus norvegicus [10]; 0% in the experiment on Rattus norvegicus [11].

The Kd is the constant that tells how readily two partners part at equilibrium. On to `CNC(C)Cc1ccc2c(c1)OCO2` (stereo unspecified) [MIDOMAFETAMINE], for which the Bmax in the experiment listed under Rattus norvegicus [12] was less than 643 fM/g; in the experiment listed under Rattus norvegicus [15] it was less than 348 fM/g. In addition, the Kd in experiment [13] came to 0.123 nM; in experiment [14] it was 0.195 nM. Further, the D in the experiment on Rattus norvegicus [16], in the experiment with Rattus norvegicus [17], in the experiment on Rattus norvegicus [18] and in the experiment with Rattus norvegicus [19] was 0% throughout. The Monoamine level is 429 pg/mg with Rattus norvegicus [20]; less than 230 pg/mg in the experiment on Rattus norvegicus [21]; less than 161 pg/mg in the experiment on Rattus norvegicus [22]; 151 pg/mg in the experiment on Rattus norvegicus [23]; 212 pg/mg in the experiment with Rattus norvegicus [24]; 318 pg/mg in the experiment with Rattus norvegicus [25]. The values for the Monoamine level with Rattus norvegicus [26], in the experiment on Rattus norvegicus [27] and in the experiment with Rattus norvegicus [31] were less than 256 pg/mg, less than 105 pg/mg and 375 pg/mg, respectively. Moreover, the results for the SDL in the experiment with Rattus norvegicus [28], in the experiment on Rattus norvegicus [29] and in the experiment with Rattus norvegicus [30] were 25%, 75% and 100%, respectively.
